The values that follow come from patent USRE38132E1, “Phenylpyrrolidines, phenylimidazolidines,3-phenyl-1,3-oxizolidines and 3-phenyl-1,3-thiazolidines and their use in the treatment of inflammatory disease” (Boehringer Ingelheim Pharmaceuticals, Inc., priority 1997, dated 2003).

pIC50, pKd: −log10 of the molar value. Like-named read-outs stand apart in the source and are kept apart here.

Data set [1] has as its system cell bound fibronectin receptor (VLA4) with fibronectin, SKW3 cells. Kind of data set: Inhibition of SKW3 cell binding to fibronectin (selectivity counter-assay). The format is cell-based, human. The settings on record: for pIC50: Homo sapiens, SKW3, values marked c: no inhibition observed up to highest dose, read-out: Assay to Detect SKW3 Cells Binding to FIBRONECTIN IC50. The source says:
(§1) Assay to Determine Inhibition of SKW3 cell binding to ICAM-1 vs. Binding to Fibronectin
(§2) This assay is used to test the selective ability of a test compound to antagonize the interaction of a cell bound form of LFA-1 with ICAM-1. The assay uses a human T cell line, SKW3 cells which express CD18, CD11a and other integrins not related to CD18, CD11a and which can be “activated” by phorbol esters. Phorbol esters enhance the affinity of CD18, CD11a for ICAM-1.
(§3) This same lymphocyte line, SKW3, also adheres to fibronectin in the presence of phorbol esters. This adhesion is mediated by membrane proteins independent of the LFA-1/ICAM-1 interaction. The SKW3 cells express another integrin, VLA4, which is the receptor for fibronectin. Therefore, as a preliminary indication of the selectivity of a test compounds to interfere with Leukointegrin/CAM interactions but not other integrin-ligand binding events, a compound can be tested for its ability to antagonize cell bound fibronectin receptor in its interaction with purified fibronectin. Compounds that inhibit this fibronectin adhesion are not specific antagonists of the CD18, CD11a/ICAM-1 binding.
(§4) Description of Assay Protocol:
(§5) Ninety-six well plates are coated with either sICAM-1(40 μg/mL) or fibronectin (100 μg/mL) in Diluting buffer for 1 h at room temperature. Added to the wells are 100 μL of the appropriately diluted test compound or 100 μL of RPMI with 15% fetal bovine serum as a control. SKW3 cells, which express CD18, CD11a and VLA4 (Dustin, M.; et al., J. Exp. Med. 1987, 165, 672-692) are washed and suspended to a concentration of 10^6 cells/mL in RPMI with 15% fetal bovine serum. Immediately before adding the cells to the wells, cells are stimulated with the phorbol ester 12-myristate 13-acetate (PMA) for a final concentration of […]. 100 μL of cells are then added to the wells resulting in a final concentration of […]. The plates are incubated for 2 h at 37° C. Unbound or loosely bound cells are gently washed away with RPMI.
(§6) Data are reported as the concentration or concentration range (in μM) at which 50% of binding is inhibited.

For data set [2], the target named is T1, interaction of ICAM-1 with the Leukointegrin CD18/CD11a (LFA-1) (Homo sapiens, UniProt P05107+P20701).
T1 construct: endogenous in cells; sICAM-1: made in house, secreted from transfected CHO DUX cells
Kind of data set: Assay to determine inhibition of LFA-1 binding to ICAM-1 (immunopurified LFA-1 on plate-bound sICAM-1, ELISA readout). (An ELISA detects its analyte on a solid surface through an enzyme-linked reagent.)

Data set [3] deals with cell bound form of LFA-1 (CD18, CD11a) with ICAM-1, SKW3 cells. Kind of data set: Inhibition of SKW3 cell binding to ICAM-1 (PMA-stimulated). The format is cell-based, human. The settings on record: read-out: Assay to Detect SKW3 Cells Binding to ICAM IC50.
From the text: as §1, §2, §3, §4, §5, §6

The test system of data set [4] is LFA-1 dependent aggregation of JY cells. Kind of data set: JY cell homotypic aggregation assay (PMA-stimulated). The class given is cell-based, human. Conditions: Homo sapiens.
From the text: This aggregation can be enhanced by the addition of phorbol esters. […] Thus, the extent of LFA-1-dependent binding may be determined by assessing the extent of spontaneous or phorbol ester-dependent aggregate formation.
An agent which interferes with LFA-1 -dependent aggregation can be identified through the use of an assay capable of determining whether the agent interferes with either spontaneous, or phorbol ester-dependent aggregation of Epstein-Barr virus transformed cells. It is preferable to employ cells of the JY cell line (Terhost, L; et aL, Proc. Natl. Acad. Sci. USA, 1976, 73, 910) for the homotypic aggregation assay. This assay, capable of measuring LFA-1 dependent aggregation, may be employed to identify agents which act as antagonists to the LFA-1 dependent aggregation. Such agents may act by impairing the ability of either LFA-1 or ICAM-1 to mediate aggregation. Thus, agents may be examined to directly determine if they are antagonists of LFA-1 aggregation.
as §4
JY cells are cultured in RPMI 1640 culture medium supplemented with 10% fetal calf serum and 50 μg/mL gentamycin. The cells are cultured at 37° C. in an atmosphere of 5% CO2 at a relative humidity of 95%. JY cells used in this assay are washed two times with RPMI 1640 medium containing 5 mM HEPES buffer and resuspended to a concentration of 2·10^6 cells/mL. Added to flat-bottomed, 96-well microtiter plates are 50 μL of test compound diluted in complete medium, 50 μL of complete medium with or without purified monoclonal antibodies (negative and positive controls for inhibition, respectively), 50 μL of complete medium containing 200 ng/mL of the phorbol ester phorbol myristate acetate (PMA) and 100 μL of cells at a concentration of 2·10^6 cells/mL in complete medium. This yields a final concentration of […] PMA and 2·10^5 cells/well. Cells are allowed to settle spontaneously, and the degree of aggregation is scored at various time points. […] This procedure has been described by Rothlein, R. R.; et al., J. Exp. Med. 1986, 163, 1132-1149. This paper also reported that antibody to LFA-1 is capable of inhibiting the formation of aggregates.
as §6

[5] abbreviates: values marked c: no inhibition observed up to highest dose.
The mark [6] stands for this setting: values marked e approximated from incomplete dose-response curve.
[7] abbreviates: Homo sapiens, SKW3, values marked c: no inhibition observed up to highest dose.

T1 sequence (P20701 26-1170): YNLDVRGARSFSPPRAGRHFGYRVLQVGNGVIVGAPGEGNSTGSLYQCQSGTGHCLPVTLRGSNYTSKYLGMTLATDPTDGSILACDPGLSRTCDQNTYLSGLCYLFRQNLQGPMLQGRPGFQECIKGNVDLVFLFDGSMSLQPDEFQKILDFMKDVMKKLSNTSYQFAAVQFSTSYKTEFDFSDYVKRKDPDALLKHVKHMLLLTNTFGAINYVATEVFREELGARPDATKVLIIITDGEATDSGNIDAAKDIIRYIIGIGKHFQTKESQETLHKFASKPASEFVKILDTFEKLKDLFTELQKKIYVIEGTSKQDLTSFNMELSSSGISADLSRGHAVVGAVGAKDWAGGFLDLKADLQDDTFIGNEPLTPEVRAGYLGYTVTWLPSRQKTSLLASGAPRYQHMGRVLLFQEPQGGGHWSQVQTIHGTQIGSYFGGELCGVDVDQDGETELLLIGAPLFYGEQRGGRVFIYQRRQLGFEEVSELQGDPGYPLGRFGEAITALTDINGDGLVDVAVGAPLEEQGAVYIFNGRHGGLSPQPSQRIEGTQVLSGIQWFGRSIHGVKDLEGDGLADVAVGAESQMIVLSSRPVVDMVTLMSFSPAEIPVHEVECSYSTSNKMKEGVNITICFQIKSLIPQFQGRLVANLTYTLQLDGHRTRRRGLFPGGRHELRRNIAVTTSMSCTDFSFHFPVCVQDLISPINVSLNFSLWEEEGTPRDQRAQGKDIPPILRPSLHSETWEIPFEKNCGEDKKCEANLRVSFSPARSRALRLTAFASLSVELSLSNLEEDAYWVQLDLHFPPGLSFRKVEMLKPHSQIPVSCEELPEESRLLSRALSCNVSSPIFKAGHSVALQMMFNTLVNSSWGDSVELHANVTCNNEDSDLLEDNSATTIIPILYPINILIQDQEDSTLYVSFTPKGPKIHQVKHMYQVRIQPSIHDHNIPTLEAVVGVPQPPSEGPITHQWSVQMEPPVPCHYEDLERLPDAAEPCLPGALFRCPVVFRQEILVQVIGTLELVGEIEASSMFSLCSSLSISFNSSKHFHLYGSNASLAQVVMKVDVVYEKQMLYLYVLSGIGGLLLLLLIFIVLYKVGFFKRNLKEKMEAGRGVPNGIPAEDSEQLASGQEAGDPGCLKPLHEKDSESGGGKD
T1 sequence (P05107 23-769): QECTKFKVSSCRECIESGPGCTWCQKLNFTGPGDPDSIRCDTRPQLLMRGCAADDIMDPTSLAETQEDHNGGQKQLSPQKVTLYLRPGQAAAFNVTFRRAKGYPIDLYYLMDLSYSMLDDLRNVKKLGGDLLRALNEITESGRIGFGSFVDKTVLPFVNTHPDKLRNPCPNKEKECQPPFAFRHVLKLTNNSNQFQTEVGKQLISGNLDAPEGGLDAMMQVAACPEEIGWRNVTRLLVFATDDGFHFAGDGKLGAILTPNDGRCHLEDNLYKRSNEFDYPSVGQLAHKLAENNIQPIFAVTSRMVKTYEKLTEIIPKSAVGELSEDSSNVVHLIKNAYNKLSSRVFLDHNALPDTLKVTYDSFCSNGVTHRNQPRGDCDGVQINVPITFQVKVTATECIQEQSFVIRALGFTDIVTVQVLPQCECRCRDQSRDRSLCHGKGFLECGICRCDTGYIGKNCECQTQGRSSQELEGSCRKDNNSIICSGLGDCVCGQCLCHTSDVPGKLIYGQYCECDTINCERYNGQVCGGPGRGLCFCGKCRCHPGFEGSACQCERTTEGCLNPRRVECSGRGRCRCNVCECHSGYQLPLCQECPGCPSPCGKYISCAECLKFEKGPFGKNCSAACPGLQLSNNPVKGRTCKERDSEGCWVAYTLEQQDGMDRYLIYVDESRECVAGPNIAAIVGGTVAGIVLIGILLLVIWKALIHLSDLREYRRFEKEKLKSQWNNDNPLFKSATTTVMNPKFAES

The pKd is the Kd on a negative log10 scale, so that one unit is a factor of ten. Broadly, the pIC50 is the negative decadic logarithm of the IC50, by convention in mol/L. For `CC(C)N1C(=O)N(c2cc(Cl)cc(Cl)c2)C(=O)C1Cc1ccccc1` (centres unmarked) [Example 10], the “Assay to Detect SKW3 Cells Binding to FIBRONECTIN IC50” value (shortened to “Assay to Detect SKW3 Cells Binding”) in data set [1] (setting [5]) is “No inh^c”. For the same compound, in the data set on SKW3 cells, the “Cellular Toxicity Assay MTT LD50” value was over 500 µM. Further, in data set [2] (setting [6]), the negative-log Kd (pKd) is 6.72. The pIC50 is 4.30 in data set [3] (setting [7]) and 5.20 in data set [4].
Taken in the same sequence, the figures for `O=C1N[C@H](Cc2ccccc2)C(=O)N1c1cc(Cl)cc(Cl)c1` [Example 15] were “No Inh^c”, 125 to 250 µM, 5.64, 4.20 to 4.51 and 4.30 to 4.60.
In the case of `CC1(Cc2ccccc2)NC(=O)N(c2cc(Cl)cc(Cl)c2)C1=O` (centres unmarked) [Example 18], the negative logarithm of the IC50 (pIC50) in data set [1] is under 3.90; in data set [3] (setting [7]) it was 4.20 to 4.49; in data set [4] it was 5.22. In addition, the “Cellular Toxicity Assay MTT LD50” value with SKW3 cells lay within 125 to 250 µM. Also, the pKd in data set [2] (setting [6]) was 6.12.
Take `CC1(Cc2c[nH]c3ccccc23)NC(=O)N(c2cc(Cl)cc(Cl)c2)C1=O` (centres unmarked) [Example 23]: the pIC50 in data set [1] was under 4.00; in data set [3] (setting [5]) it was 4.30 to 4.60; in data set [4] it was 4.89. In the data set with SKW3 cells, the “Cellular Toxicity Assay MTT LD50” value fell in the range of 50 to 100 µM. In addition, the pKd in data set [2] (setting [6]) was 6.11.
Regarding `CC(C)N1C(=O)N(c2cc(Cl)cc(Cl)c2)C(=O)C1Cc1ccc(Br)cc1` (centres unmarked) [Example 34], in data set [1] (setting [5]), the “Assay to Detect SKW3 Cells Binding” value is “No inh^c”. Also, in the data set on SKW3 cells, the “Cellular Toxicity Assay MTT LD50” value fell in the range of 200 to 400 µM. For the same compound, the pKd in data set [2] (setting [6]) is 6.89. Further, the negative-log IC50 (pIC50) was 5.22 in data set [3] (setting [7]) and 5.74 in data set [4].
For `C[C@]1(Cc2ccc(Br)cc2)NC(=O)N(c2cc(C(F)(F)F)cc(C(F)(F)F)c2)C1=O` [Example 35] the same measures were “No inh^c”, 38 to 46 µM, 7.00, 5.00 to 5.30 and 6.10.
Consider `CN1CCC(N2C(=O)N(c3cc(Cl)cc(Cl)c3)C(=O)[C@@]2(C)Cc2ccc(Br)cc2)CC1` [Example 37], for which the pIC50 in data set [1] was under 4.72; in data set [3] (setting [7]) it was 5.00 to 5.30; in data set [4], 5.80. Moreover, the “Cellular Toxicity Assay MTT LD50” value with SKW3 cells was under 13 µM. This compound had a pKd in data set [2] (setting [6]) of 6.80.
Regarding `[2H]C([2H])([2H])N1C(=O)N(c2cc(Cl)cc(Cl)c2)C(=O)[C@@]1(C)Cc1ccc(Br)cc1` [Example 109], in data set [1] (setting [5]), the “Assay to Detect SKW3 Cells Binding” value is recorded as “No inh^c”. For the same compound, in the data set on SKW3 cells, the “Cellular Toxicity Assay MTT LD50” value fell in the range of 100 to 200 µM. Also, the results for the pIC50 in data set [3] (setting [7]) and in data set [4] were 5.22 to 5.52 and 6.40, respectively.
With `Cc1ccc(C[C@@]2(C)NC(=O)N(c3cc(Cl)cc(Cl)c3)C2=O)cc1` [Example 119], in data set [1] (setting [5]), the “Assay to Detect SKW3 Cells Binding” value is on record as “No inh^c”. Besides, the “Cellular Toxicity Assay MTT LD50” value in the data set with SKW3 cells was over 400 µM. In addition, the figures for the pIC50 in data set [3] (setting [7]) and in data set [4] were over 5.52 and 7.30, respectively.
As for `C[C@@]1(Cc2ccc(Br)cc2)C(=O)N(c2cc(Cl)cc(Cl)c2)C(=O)N1C(=O)C1CCCN1` (some centres unmarked) [Example 234], in data set [1] (No inh = no inhibition observed up to highest dose, exact quantification not always possible due to intrinsic toxicity), the “Assay to Detect SKW3 Cells Binding” value is on record as “No inh^c”. For the same compound, the “Cellular Toxicity Assay MTT LD50” value in the data set with SKW3 cells lay in the range of 100 to 200 µM. In addition, the negative logarithm of the IC50 (pIC50) is 5.00 to 5.30 in data set [3] (Homo sapiens, SKW3) and 5.80 in data set [4].
Consider `C[C@@]1(Cc2ccc(Br)cc2)C(=O)N(c2cc(Cl)cc(Cl)c2)C(=O)N1CCCC[N+](C)(C)C` [Example 253], for which the “Cellular Toxicity Assay MTT LD50” value in the data set with SKW3 cells fell in the range of 100 to 200 µM. This compound gave a negative-log Kd (pKd) in data set [2] of 7.30. In addition, the negative logarithm of the IC50 (pIC50) in data set [3] (Homo sapiens, SKW3) was 5.70 to 6.00; in data set [4] it was 6.70.
`C[C@@]1(Cc2ccc(Br)cc2)C(=O)N(c2cc(Cl)cc(Cl)c2)C(=O)N1CCC[N+](C)(C)C` [Example 254]: in the data set with SKW3 cells, the “Cellular Toxicity Assay MTT LD50” value fell in the range of 100 to 200 µM. In data set [2], this compound had a pKd of 7.10. Besides, the negative-log IC50 (pIC50) is 5.70 to 6.00 in data set [3] (Homo sapiens, SKW3) and 6.40 in data set [4].
As to `C[C@@]1(Cc2ccc(Br)cc2)C(=O)N(c2cc(Cl)cc(Cl)c2)C(=O)N1CCCCC[N+](C)(C)C` [Example 255], the “Cellular Toxicity Assay MTT LD50” value in the data set with SKW3 cells was in the range of 100 to 200 µM. Further, in data set [2], the negative-log Kd (pKd) was 6.85. Further, the negative-log IC50 (pIC50) was 6.00 in data set [3] (Homo sapiens, SKW3) and 6.70 in data set [4].
